Measured values as given in patent US6492410B1, “Combinations of protein farnesyltransferase and HMG CoA reductase inhibitors and their use to treat cancer” (Warner-Lambert Company, priority 1998, dated 2002).

How the values were obtained:
[1] = tested on: EJ-1 human bladder carcinoma; details: 100 mg/kg; EJ-1 xenograft in nude mice; cited from earlier work
[2] = tested on: HT1080 human fibrosarcoma; details: 100 mg/kg; HT1080 xenograft in nude mice; cited from earlier work
[3] = tested on: human colon carcinoma xenografts; details: 100 mg/kg; human colon carcinoma xenograft in nude mice; cited from earlier work
[4] = tested on: human lung carcinoma with K-ras mutation and p53 deletion; details: nude mice; cited from earlier work
[5] = tested on: mammary and salivary carcinomas; details: daily administration; ras transgenic mice; cited from earlier work
Colon26 = test: cells; details: Mus musculus, Colon 26, 72 h, read-out: IC50 (concentration at which growth (cell#) is reduced by 50%)
Experimental: (§1) A proliferation assay was performed to ascertain the toxicity of a combination of a famesyl protein transferase and lovastatin at various concentrations to a number of cancerous cell lines. The assay was also performed to ascertain the toxicity of the farnesyl protein transferase alone as a comparison against the combination.
(§2) Cell lines (Panc-1, Colon26, HT-29 Colon, H460 Lung, H-ras NIH 3T3 fibroblast, P388/ADR leukemia, and P388/S leukemia) were set up at various starting concentrations in 24- or 12-well dishes. Suspension cells were treated immediately; attached monolayer cells were allowed to attach for 24 hours prior to treatment. The cells were treated in one series of tests with lovastatin and solvent (DMSO); in another series of tests with a combination of lovastatin, solvent (DMSO) and the farnesyltransferase inhibitor, (S)-[1-{(4-benzyloxy-benzyl)-[(2-methyl-2-phenyl-propyl carbamoyl)-methyl]-carbamoyl}-2-(3H1-imidazol-4-yl)-ethyl]-carbamic acid benzyl ester (Compound A); and in a third series of cells were treated with only the farnesyltransferase inhibitor. After 72 hours of treatment, the cells (growing in 1 mL of medium) are trypsinized with warm (37 degrees celsius) trypsin-EDTA (0.5 mL for 1-2 minutes), agitated, rescued with 0.5 mL of warm (37) medium, then diluted in […] Isoton (isotonic saline) for a final volume of 10 mL, 0.5 mL are then counted on a Coulter cell counter.
(§3) The data for lovastatin treatment alone is relative to the DMSO-treated controls; the data for combination treatment is relative to the PFT inhibitor treatment alone samples.

H-ras NIH 3T3 fibroblast = test: cells; details: Mus musculus, NIH3T3, 72 h, read-out: IC50 (concentration at which growth (cell#) is reduced by 50%)
Experimental: as §1, §2, §3

H460 Lung = test: cells; details: Homo sapiens, NCI-H460, 72 h, read-out: IC50 (concentration at which growth (cell#) is reduced by 50%)
Experimental: as §1, §2, §3

HT-29 Colon = test: cells; details: Homo sapiens, HT-29, 72 h, read-out: IC50 (concentration at which growth (cell#) is reduced by 50%)
Experimental: as §1, §2, §3

P388/ADR leukemia = test: cells; details: Mus musculus, 72 h, read-out: IC50 (concentration at which growth (cell#) is reduced by 50%)
Experimental: as §1, §2, §3

P388/S leukemia = test: cells; details: Mus musculus, 72 h, read-out: IC50 (concentration at which growth (cell#) is reduced by 50%)
Experimental: as §1, §2, §3

Panc-1 = test: cells; details: Homo sapiens, PANC-1, 72 h, read-out: IC50 (concentration at which growth (cell#) is reduced by 50%)
Experimental: as §1, §2, §3

[6] = tested on: hepatocellular, pancreatic, and central nervous system tumors; details: in vitro and in animal models; cited from earlier work

Compound: COC(=O)[C@H](CCSC)NC(=O)[C@H](/C=C\[C@@H](/C=C/[C@@H](N)CS)C(C)C)Cc1ccccc1 [B 1086]
- tumor growth [1]: inhibit tumor growth
- tumor growth [2]: inhibit tumor growth
- tumor growth [3]: inhibit tumor growth

Compound: CSCC[C@H](NC(=O)c1ccc(NC[C@@H](N)CS)cc1-c1ccccc1)C(=O)O [FT1276]
- tumor growth [4]: selectively block tumor growth

Compound: CC[C@H](C)[C@@H](CO[C@@H](Cc1ccccc1)C(=O)N[C@@H](CCS(C)(=O)=O)C(=O)OC(C)C)NC[C@@H](N)CS [L-744,832]
- tumor regression [5]: caused tumor regression

Compound: CC[C@H](C)C(=O)O[C@H]1C[C@@H](C)C=C2C=C[C@H](C)[C@H](CC[C@@H]3C[C@@H](O)CC(=O)O3)[C@H]21 [Lovastatin, lovastatin]
- IC50 (Colon26): 1.2 µM
- IC50 (H-ras NIH 3T3 fibroblast): 17.4 µM
- IC50 (H460 Lung): 5.5 µM
- IC50 (HT-29 Colon): 11.4 µM
- IC50 (P388/ADR leukemia): 10.7 µM
- IC50 (P388/S leukemia): 4 µM
- IC50 (Panc-1): 18.8 µM
- tumor growth [6]: selectively inhibited tumor growth
